According to ChEMBL document CHEMBL1138732, “Evans Blue is an inhibitor of nuclear factor-kappa B (NF-kappaB)-DNA binding” (Bioorg Med Chem Lett, 2004):

Target: T1, Nuclear factor NF-kappa-B p105 subunit (Homo sapiens) (UniProt P19838)
T1 sequence (whole entry): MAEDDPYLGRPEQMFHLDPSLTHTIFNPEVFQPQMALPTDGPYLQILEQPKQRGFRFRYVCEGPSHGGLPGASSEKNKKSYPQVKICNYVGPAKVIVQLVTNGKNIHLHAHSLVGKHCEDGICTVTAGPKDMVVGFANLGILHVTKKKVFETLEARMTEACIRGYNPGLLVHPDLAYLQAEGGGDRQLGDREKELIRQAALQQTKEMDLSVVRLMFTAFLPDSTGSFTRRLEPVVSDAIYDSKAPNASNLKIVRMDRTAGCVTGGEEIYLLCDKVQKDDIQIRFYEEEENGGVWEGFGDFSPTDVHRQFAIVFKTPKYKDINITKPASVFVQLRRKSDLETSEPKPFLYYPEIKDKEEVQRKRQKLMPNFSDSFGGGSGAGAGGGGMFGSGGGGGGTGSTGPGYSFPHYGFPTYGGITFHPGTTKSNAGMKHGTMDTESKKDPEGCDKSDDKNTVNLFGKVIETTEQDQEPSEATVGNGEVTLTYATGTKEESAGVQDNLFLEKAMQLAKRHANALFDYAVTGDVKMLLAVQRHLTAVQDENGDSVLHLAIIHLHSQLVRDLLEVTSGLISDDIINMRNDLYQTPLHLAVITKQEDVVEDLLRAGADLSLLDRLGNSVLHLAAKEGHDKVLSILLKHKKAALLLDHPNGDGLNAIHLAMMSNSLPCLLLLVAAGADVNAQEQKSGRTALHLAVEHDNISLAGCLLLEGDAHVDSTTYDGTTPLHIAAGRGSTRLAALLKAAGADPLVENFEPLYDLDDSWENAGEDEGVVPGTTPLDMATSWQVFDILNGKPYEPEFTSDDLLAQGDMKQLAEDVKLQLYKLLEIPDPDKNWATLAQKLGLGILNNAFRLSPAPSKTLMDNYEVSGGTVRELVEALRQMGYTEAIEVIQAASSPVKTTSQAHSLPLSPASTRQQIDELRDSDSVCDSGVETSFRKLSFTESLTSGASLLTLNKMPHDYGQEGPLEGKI
Assay: inhibitory effect on the DNA binding of Nuclear factor kappa B; Active

- Concentration: 100 µM
SMILES: Cc1cc(-c2ccc(/N=N/c3ccc4c(S(=O)(=O)O)cc(S(=O)(=O)O)c(N)c4c3O)c(C)c2)ccc1/N=N/c1ccc2c(S(=O)(=O)O)cc(S(=O)(=O)O)c(N)c2c1O
